Where two headings read alike, the source gives them in different places.
Biological target: BTK (Homo sapiens (Human), UniProt Q06187)
Assay: In vitro BTK kinase assay: BTK-POLYGAT-LS ASSAY
[1] = read-out: IC50 (10 uM ATP), 10 uM ATP, in vitro Btk kinase assay, Example 41

BTK, sequence (Q06187 whole entry): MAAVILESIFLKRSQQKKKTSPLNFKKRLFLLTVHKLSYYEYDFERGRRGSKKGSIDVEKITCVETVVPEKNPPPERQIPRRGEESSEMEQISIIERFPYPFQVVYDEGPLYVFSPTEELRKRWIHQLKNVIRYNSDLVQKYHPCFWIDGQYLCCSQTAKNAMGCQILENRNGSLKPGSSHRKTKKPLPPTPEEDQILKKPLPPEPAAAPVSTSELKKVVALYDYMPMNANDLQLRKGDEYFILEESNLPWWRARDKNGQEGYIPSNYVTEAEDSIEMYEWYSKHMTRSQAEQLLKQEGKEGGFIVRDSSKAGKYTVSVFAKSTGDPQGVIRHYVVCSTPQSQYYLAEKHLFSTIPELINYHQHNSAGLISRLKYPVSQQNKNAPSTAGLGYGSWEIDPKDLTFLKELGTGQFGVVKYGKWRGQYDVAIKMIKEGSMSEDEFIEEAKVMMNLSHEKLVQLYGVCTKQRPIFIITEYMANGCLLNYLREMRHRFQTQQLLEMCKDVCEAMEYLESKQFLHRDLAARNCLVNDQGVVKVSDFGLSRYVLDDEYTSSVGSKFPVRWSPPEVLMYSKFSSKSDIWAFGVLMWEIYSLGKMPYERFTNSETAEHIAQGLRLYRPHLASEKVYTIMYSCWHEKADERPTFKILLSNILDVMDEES

SMILES | IC50 [nM] | IC50 [1] [nM]
O=C(Nc1cc(C2CCCN(c3ncnc4[nH]ccc34)C2)ccc1OC(F)(F)F)c1c(F)cccc1Cl (centres unmarked) [Cmpd 90, N-(5-(1-(7H-pyrrolo[2,3-d]pyrimidin-4-yl)piperidin-3-yl)-2-(trifluoromethoxy)phenyl)-2-chloro-6-fluorobenzamide] | 100 to 999 | 
O=C(Nc1ccccc1)Nc1cccc(C2CCCN(c3ncnc4[nH]ncc34)C2)c1 (centres unmarked) [Cmpd 91, 1-(3-(1-(1H-pyrazolo[3,4-d]pyrimidin-4-yl)piperidin-3-yl)phenyl)-3-phenylurea] | 1000 to 10000 | 
CC(=O)Nc1cc(N2CCCC(c3cccc(NC(=O)Nc4ccccc4)c3)C2)ncn1 (centres unmarked) [Cmpd 92, N-(6-(3-(3-(3-phenylureido)phenyl)piperidin-1-yl)pyrimidin-4-yl)acetamide] |  | > 10000
Cn1ccc2c(N3CCCC(c4cccc(NC(=O)Nc5ccccc5)c4)C3)ncnc21 (centres unmarked) [Cmpd 93, 1-(3-(1-(7-methyl-7H-pyrrolo[2,3-d]pyrimidin-4-yl)piperidin-3-yl)phenyl)-3-phenylurea] |  | > 10000
Nc1cc(N2CCCC(c3cccc(NC(=O)Nc4ccccc4)c3)C2)ncn1 (centres unmarked) [Cmpd 94, 1-(3-(1-(6-aminopyrimidin-4-yl)piperidin-3-yl)phenyl)-3-phenylurea] | 1000 to 10000 | 
CNc1cc(N2CCCC(c3cccc(NC(=O)Nc4ccccc4)c3)C2)ncn1 (centres unmarked) [Cmpd 95, 1-(3-(1-(6-(methylamino)pyrimidin-4-yl)piperidin-3-yl)phenyl)-3-phenylurea] |  | > 10000
O=C1Cc2c(ncnc2N2CCCC(c3cccc(NC(=O)Nc4ccccc4)c3)C2)N1 (centres unmarked) [Cmpd 96, 1-(3-(1-(6-oxo-6,7-dihydro-5H-pyrrolo[2,3-d]pyrimidin-4-yl)piperidin-3-yl)phenyl)-3-phenylurea] | 1000 to 10000 | 
COc1c(N)ncnc1N1CCCC(c2cccc(NC(=O)Nc3ccccc3)c2)C1 (centres unmarked) [Cmpd 97, 1-(3-(1-(6-Amino-5-methoxypyrimidin-4-yl)piperidin-3-yl)phenyl)-3-phenylurea] |  | > 10000
Cc1c(N)ncnc1N1CCCC(c2cccc(NC(=O)Nc3ccccc3)c2)C1 (centres unmarked) [Cmpd 98, 1-(3-(1-(6-Amino-5-methylpyrimidin-4-yl)piperidin-3-yl)phenyl)-3-phenylurea] | 1000 to 10000 | 
Nc1ncnc(N2CCCC(c3cccc(NC(=O)Nc4ccccc4)c3)C2)c1Cl (centres unmarked) [Cmpd 99, 1-(3-(1-(6-Amino-5-chloropyrimidin-4-yl)piperidin-3-yl)phenyl)-3-phenylurea] | 1000 to 10000 | 
O=C(Nc1ccccc1)Nc1cccc(C2CCCN(c3ncnc4[nH]nc(Br)c34)C2)c1 (centres unmarked) [Cmpd 100, 1-(3-(1-(3-Bromo-1H-pyrazolo[3,4-d]pyrimidin-4-yl)piperidin-3-yl)phenyl)-3-phenylurea] | 1000 to 10000 | 
Nc1ncnc(N2CCCC(c3cccc(NC(=O)Nc4ccccc4)c3)C2)c1Br (centres unmarked) [Cmpd 101, 1-(3-(1-(6-Amino-5-bromopyrimidin-4-yl)piperidin-3-yl)phenyl)-3-phenylurea] | 1000 to 10000 | 
N#Cc1c(N)ncnc1N1CCCC(c2cccc(NC(=O)Nc3ccccc3)c2)C1 (centres unmarked) [Cmpd 102, 1-(3-(1-(6-Amino-5-cyanopyrimidin-4-yl)piperidin-3-yl)phenyl)-3-phenylurea] | 100 to 999 | 
O=C(Nc1ccccc1)Nc1cccc(C2CCCN(c3ncnc4[nH]cnc34)C2)c1 (centres unmarked) [Cmpd 103, 1-(3-(1-(9H-Purin-6-yl)piperidin-3-yl)phenyl)-3-phenylurea] | 100 to 999 | 
O=C(Nc1cccc(C2CCCN(c3ncnc4[nH]ccc34)C2)c1)c1ccncc1 (centres unmarked) [compound 11, N-(3-(1-(7H-pyrrolo[2,3-d]pyrimidin-4-yl)piperidin-3-yl)phenyl)isonicotinamide] |  | > 10000
O=C(Nc1cccc(C2CCCN(c3ncnc4[nH]ccc34)C2)c1)c1cccnc1 (centres unmarked) [compound 12, N-(3-(1-(7H-pyrrolo[2,3-d]pyrimidin-4-yl)piperidin-3-yl)phenyl)nicotinamide] |  | > 10000
O=C(Nc1cccc(C2CCCN(c3ncnc4[nH]ccc34)C2)c1)c1ccccn1 (centres unmarked) [compound 13, N-(3-(1-(7H-pyrrolo[2,3-d]pyrimidin-4-yl)piperidin-3-yl)phenyl)picolinamide] |  | > 10000
O=C(Nc1cccc(C2CCCN(c3ncnc4[nH]ccc34)C2)c1)c1ccc[nH]1 (centres unmarked) [compound 14, N-(3-(1-(7H-pyrrolo[2,3-d]pyrimidin-4-yl)piperidin-3-yl)phenyl)-1H-pyrrole-2-carboxamide] |  | > 10000
O=C(Nc1cccc(C2CCCN(c3ncnc4[nH]ccc34)C2)c1)c1cccc(O)c1 (centres unmarked) [compound 15, N-(3-(1-(7H-pyrrolo[2,3-d]pyrimidin-4-yl)piperidin-3-yl)phenyl)-3-hydroxybenzamide] |  | > 10000

SMILES | IC50 [nM] | IC50 [1] [nM]
c1ccc(Nc2nc3ccc(C4CCCN(c5ncnc6[nH]ccc56)C4)cc3[nH]2)cc1 (centres unmarked) [compound 105, 6-(1-(7H-pyrrolo[2,3-d]pyrimidin-4-yl)piperidin-3-yl)-N-phenyl-1H-benzo[d]imidazol-2-amine] | 1000 to 10000 | 
O=C(Nc1ccccc1)Nc1csc(C2CCCN(c3ncnc4[nH]ccc34)C2)n1 (centres unmarked) [compound 106, 1-(2-(1-(7H-pyrrolo[2,3-d]pyrimidin-4-yl)piperidin-3-yl)thiazol-4-yl)-3-phenylurea] | 1000 to 10000 | 
O=C(Nc1csc(C2CCCN(c3ncnc4[nH]ccc34)C2)n1)Nc1ccccc1N1CCCC1 (centres unmarked) [compound 107, 1-(2-(1-(7H-pyrrolo[2,3-d]pyrimidin-4-yl)piperidin-3-yl)thiazol-4-yl)-3-(2-(pyrrolidin-1-yl)phenyl)urea] |  | < 100
N#Cc1c(N)ncnc1N1CCCC(c2nc(NC(=O)Nc3ccccc3N3CCCC3)cs2)C1 (centres unmarked) [compound 109, 1-(2-(1-(6-amino-5-cyanopyrimidin-4-yl)piperidin-3-yl)thiazol-4-yl)-3-(2-(pyrrolidin-1-yl)phenyl)urea] |  | < 100
O=C(Nc1csc(C2CCCN(c3ncnc4[nH]ncc34)C2)n1)Nc1ccccc1N1CCCC1 (centres unmarked) [compound 110, 1-(2-(1-(1H-pyrazolo[3,4-d]pyrimidin-4-yl)piperidin-3-yl)thiazol-4-yl)-3-(2-(pyrrolidin-1-yl)phenyl)urea] |  | < 100
O=C(Nc1csc(C2CCCN(c3ncnc4[nH]ccc34)C2)n1)Nc1c(F)cc(F)cc1N1CCCC1 (centres unmarked) [compound 111, 1-(2-(1-(7H-pyrrolo[2,3-d]pyrimidin-4-yl)piperidin-3-yl)thiazol-4-yl)-3-(2,4-difluoro-6-(pyrrolidin-1-yl)phenyl)urea] |  | < 100
O=C(Nc1csc(C2CCCN(c3ncnc4[nH]ncc34)C2)n1)Nc1c(F)cc(F)cc1N1CCCC1 (centres unmarked) [compound 112, 1-(2-(1-(1H-pyrazolo[3,4-d]pyrimidin-4-yl)piperidin-3-yl)thiazol-4-yl)-3-(2,4-difluoro-6-(pyrrolidin-1-yl)phenyl)urea] |  | < 100
N#Cc1c(N)ncnc1N1CCCC(c2nc(NC(=O)Nc3c(F)cc(F)cc3N3CCCC3)cs2)C1 (centres unmarked) [compound 113, 1-(2-(1-(6-amino-5-cyanopyrimidin-4-yl)piperidin-3-yl)thiazol-4-yl)-3-(2,4-difluoro-6-(pyrrolidin-1-yl)phenyl)urea] |  | < 100
Nc1ncnc(N2CCCC(c3nc(NC(=O)Nc4c(F)cc(F)cc4N4CCCC4)cs3)C2)c1Cl (centres unmarked) [compound 114, 1-(2-(1-(6-amino-5-chloropyrimidin-4-yl)piperidin-3-yl)thiazol-4-yl)-3-(2,4-difluoro-6-(pyrrolidin-1-yl)phenyl)urea] | 100 to 999 | 
O=C(Nc1ccccc1)Nc1ncc(C2CCCN(c3ncnc4[nH]ccc34)C2)s1 (centres unmarked) [compound 115, 1-(5-(1-(7H-pyrrolo[2,3-d]pyrimidin-4-yl)piperidin-3-yl)thiazol-2-yl)-3-phenylurea] |  | > 10000
O=C(Nc1ccccc1)Nc1nc(C2CCCN(c3ncnc4[nH]ccc34)C2)cs1 (centres unmarked) [compound 116, 1-(4-(1-(7H-pyrrolo[2,3-d]pyrimidin-4-yl)piperidin-3-yl)thiazol-2-yl)-3-phenylurea] | 1000 to 10000 | 
O=C(Nc1ccccc1)Nc1cnc(C2CCCN(c3ncnc4[nH]ccc34)C2)s1 (centres unmarked) [compound 117, 1-(2-(1-(7H-pyrrolo[2,3-d]pyrimidin-4-yl)piperidin-3-yl)thiazol-5-yl)-3-phenylurea] |  | > 10000
O=C(Nc1ccccc1)Nc1cccc(C2CCCN(c3ncnc4[nH]ccc34)C2)n1 (centres unmarked) [compound 118, 1-(6-(1-(7H-pyrrolo[2,3-d]pyrimidin-4-yl)piperidin-3-yl)pyridin-2-yl)-3-phenylurea] | 1000 to 10000 | 
O=c1nc(Nc2cccc(C3CCCN(c4ncnc5[nH]ccc45)C3)c2)[nH]c2ccccc12 (centres unmarked) [compound 119, 2-(3-(1-(7H-pyrrolo[2,3-d]pyrimidin-4-yl)piperidin-3-yl)phenylamino)quinazolin-4(1H)-one] |  | > 10000
O=c1nc(Nc2cccc(C3CCCN(c4ncnc5[nH]ccc45)C3)c2)[nH]c2c1CCCC2 (centres unmarked) [compound 120, 2-(3-(1-(7H-pyrrolo[2,3-d]pyrimidin-4-yl)piperidin-3-yl)phenylamino)-5,6,7,8-tetrahydroquinazolin-4(1H)-one] | 1000 to 10000 | 
CC(C)c1cc(=O)nc(Nc2cccc(C3CCCN(c4ncnc5[nH]ccc45)C3)c2)[nH]1 (centres unmarked) [compound 121, 2-(3-(1-(7H-pyrrolo[2,3-d]pyrimidin-4-yl)piperidin-3-yl)phenylamino)-6-isopropylpyrimidin-4(1H)-one] | 1000 to 10000 | 
Cc1cc(=O)nc(Nc2cccc(C3CCCN(c4ncnc5[nH]ccc45)C3)c2)[nH]1 (centres unmarked) [compound 122, 2-(3-(1-(7H-pyrrolo[2,3-d]pyrimidin-4-yl)piperidin-3-yl)phenylamino)-6-methylpyrimidin-4(1H)-one] |  | > 10000
O=C(Nc1cccc([C@H]2CN(c3ncnc4[nH]ccc34)CC[C@H]2CO)c1)Nc1ccccc1N1CCCC1 [compound 123, 1-(3-((3S/R)-4-(hydroxymethyl)-1-(7H-pyrrolo[2,3-d]pyrimidin-4-yl)piperidin-3-yl)phenyl)-3-(2-(pyrrolidin-1-yl)phenyl)urea] | 100 to 999 | 
O=C(Nc1cccc(C2CN(c3ncnc4[nH]ccc34)CCN2CCO)c1)Nc1ccccc1N1CCCC1 (centres unmarked) [compound 124, 1-(3-(1-(2-hydroxyethyl)-4-(7H-pyrrolo[2,3-d]pyrimidin-4-yl)piperazin-2-yl)phenyl)-3-(2-(pyrrolidin-1-yl)phenyl)urea] | 100 to 999 | 
